Legend:
[1] = for mass density / kinematic viscosity: 101.33 kPa, Liquid; for mass density: Vibrating tube method; for surface tension liquid-gas / kinematic viscosity: Surface laser light scattering (SLLS)
[2] = refractive index (Na D-line) (dimensionless); settings: 101.33 kPa, Liquid, Standard Abbe refractometry

CCCCCCCCCCCC [dodecane]
[1]
Settings	kinematic viscosity [m2/s]	mass density [kg/m3]	surface tension liquid-gas [mN/m]
293.15 K	–	748.81	–
298.16 K	1.76e-06	–	23.37
303.15 K	–	741.42	–
313.15 K	–	734.08	–
323.15 K	–	726.74	–
323.23 K	1.25e-06	–	21.9
333.15 K	–	719.38	–
343.15 K	–	711.32	–
348.21 K	9.24e-07	–	20.09
353.15 K	–	704.62	–
363.15 K	–	697.21	–
373.15 K	–	689.75	–
373.29 K	7.24e-07	–	18.02
383.15 K	–	682.25	–
393.15 K	–	674.68	–
398.25 K	5.87e-07	–	16.1
403.15 K	–	667.04	–
413.15 K	–	659.32	–
423.15 K	–	651.53	–
423.26 K	4.89e-07	–	14.25
433.15 K	–	643.6	–
443.15 K	–	635.55	–
448.27 K	4.16e-07	–	12.32
453.15 K	–	627.38	–
463.15 K	–	619.09	–
473.15 K	–	610.6	–

CCCCCCCCCC(=O)OCC [ethyl decanoate]
Settings	kinematic viscosity [m2/s]	mass density [kg/m3]	refractive index	surface tension liquid-gas [mN/m]
[1], 293.15 K	–	864.08	–	–
[1], 298.13 K	2.2e-06	–	–	23.87
[1], 303.15 K	–	855.82	–	–
[1], 313.15 K	–	847.62	–	–
[1], 323.11 K	1.59e-06	–	–	22.57
[1], 323.15 K	–	839.41	–	–
[1], 333.15 K	–	830.71	–	–
[1], 343.15 K	–	822.79	–	–
[1], 348.1 K	1.22e-06	–	–	21.38
[1], 353.15 K	–	814.9	–	–
[1], 363.15 K	–	806.72	–	–
[1], 373.15 K	–	798.5	–	–
[1], 373.17 K	9.55e-07	–	–	19.81
[1], 383.15 K	–	790.26	–	–
[1], 393.15 K	–	781.97	–	–
[1], 398.16 K	7.48e-07	–	–	18.26
[1], 403.15 K	–	773.63	–	–
[1], 413.15 K	–	765.29	–	–
[1], 423.12 K	6.18e-07	–	–	16.8
[1], 423.15 K	–	756.81	–	–
[1], 433.15 K	–	748.26	–	–
[1], 443.15 K	–	739.7	–	–
[1], 448.1 K	4.92e-07	–	–	14.86
[1], 453.15 K	–	731.01	–	–
[2], 278.15 K	–	–	1.43213	–
[2], 283.15 K	–	–	1.43	–
[2], 288.15 K	–	–	1.42789	–
[2], 293.15 K	–	–	1.42577	–
[2], 298.15 K	–	–	1.42366	–
[2], 303.15 K	–	–	1.42155	–
[2], 308.15 K	–	–	1.41944	–
[2], 313.15 K	–	–	1.41729	–
[2], 318.15 K	–	–	1.41512	–
[2], 323.15 K	–	–	1.41297	–
[2], 328.15 K	–	–	1.41084	–
[2], 333.15 K	–	–	1.40873	–
[2], 338.15 K	–	–	1.40661	–
[2], 343.15 K	–	–	1.40451	–
[2], 348.15 K	–	–	1.40241	–
[2], 353.15 K	–	–	1.40034	–
[2], 358.15 K	–	–	1.39826	–

CCCCCCCCCCCC(=O)OCC [ethyl dodecanoate]
Settings	kinematic viscosity [m2/s]	mass density [kg/m3]	refractive index	surface tension liquid-gas [mN/m]
[1], 293.15 K	–	862	–	–
[1], 298.03 K	3.11e-06	–	–	26.84
[1], 303.15 K	–	853.15	–	–
[1], 313.15 K	–	845.31	–	–
[1], 323.15 K	1.98e-06	838.31	–	24.54
[1], 333.15 K	–	830.53	–	–
[1], 343.15 K	–	822.74	–	–
[1], 348.25 K	1.44e-06	–	–	22.85
[1], 353.15 K	–	814.95	–	–
[1], 363.15 K	–	807.16	–	–
[1], 373.15 K	–	799.37	–	–
[1], 373.4 K	1.09e-06	–	–	21.17
[1], 383.15 K	–	791.55	–	–
[1], 393.15 K	–	783.72	–	–
[1], 398.14 K	8.72e-07	–	–	19.32
[1], 403.15 K	–	775.85	–	–
[1], 413.15 K	–	767.94	–	–
[1], 423.13 K	7.19e-07	–	–	17.83
[1], 423.15 K	–	759.99	–	–
[1], 433.15 K	–	751.6	–	–
[1], 443.15 K	–	744.05	–	–
[1], 448.22 K	5.91e-07	–	–	15.95
[1], 453.15 K	–	735.97	–	–
[2], 278.15 K	–	–	1.43791	–
[2], 283.15 K	–	–	1.43583	–
[2], 288.15 K	–	–	1.43375	–
[2], 293.15 K	–	–	1.43169	–
[2], 298.15 K	–	–	1.42961	–
[2], 303.15 K	–	–	1.42755	–
[2], 308.15 K	–	–	1.42547	–
[2], 313.15 K	–	–	1.42335	–
[2], 318.15 K	–	–	1.42125	–
[2], 323.15 K	–	–	1.41915	–
[2], 328.15 K	–	–	1.41707	–
[2], 333.15 K	–	–	1.41501	–
[2], 338.15 K	–	–	1.41295	–
[2], 343.15 K	–	–	1.4109	–
[2], 348.15 K	–	–	1.40886	–
[2], 353.15 K	–	–	1.40684	–
[2], 358.15 K	–	–	1.40479	–

CCCCCCC(=O)OCC [ethyl heptanoate]
Settings	kinematic viscosity [m2/s]	mass density [kg/m3]	refractive index	surface tension liquid-gas [mN/m]
[1], 293.15 K	–	869.42	–	–
[1], 298.25 K	1.33e-06	–	–	24.88
[1], 303.15 K	–	860.36	–	–
[1], 313.15 K	–	851.32	–	–
[1], 323.03 K	9.55e-07	–	–	23.07
[1], 323.15 K	–	842.26	–	–
[1], 333.15 K	–	833.07	–	–
[1], 343.15 K	–	824.1	–	–
[1], 347.8 K	7.3e-07	–	–	20.71
[1], 353.15 K	–	814.99	–	–
[1], 363.15 K	–	805.81	–	–
[1], 372.91 K	5.73e-07	–	–	18.61
[1], 373.15 K	–	796.55	–	–
[1], 383.15 K	–	787.24	–	–
[1], 393.15 K	–	777.81	–	–
[1], 397.51 K	4.7e-07	–	–	16.27
[1], 403.15 K	–	768.3	–	–
[1], 413.15 K	–	758.65	–	–
[1], 421.88 K	3.95e-07	–	–	14.43
[1], 423.15 K	–	748.89	–	–
[1], 433.15 K	–	738.95	–	–
[1], 443.15 K	–	728.84	–	–
[1], 448 K	3.39e-07	–	–	12.31
[2], 278.15 K	–	–	1.42006	–
[2], 283.15 K	–	–	1.41784	–
[2], 288.15 K	–	–	1.41562	–
[2], 293.15 K	–	–	1.41341	–
[2], 298.15 K	–	–	1.41119	–
[2], 303.15 K	–	–	1.40896	–
[2], 308.15 K	–	–	1.40673	–
[2], 313.15 K	–	–	1.40445	–
[2], 318.15 K	–	–	1.40216	–
[2], 323.15 K	–	–	1.39988	–
[2], 328.15 K	–	–	1.39761	–
[2], 333.15 K	–	–	1.39535	–
[2], 338.15 K	–	–	1.39311	–
[2], 343.15 K	–	–	1.39088	–
[2], 348.15 K	–	–	1.38866	–
[2], 353.15 K	–	–	1.38645	–
[2], 358.15 K	–	–	1.38421	–

CCCCCC(=O)OCC [ethyl hexanoate]
Settings	kinematic viscosity [m2/s]	mass density [kg/m3]	refractive index	surface tension liquid-gas [mN/m]
[1], 293.15 K	–	871.07	–	–
[1], 298.26 K	1.13e-06	–	–	24.65
[1], 303.15 K	–	861.61	–	–
[1], 313.15 K	–	851.2	–	–
[1], 323.06 K	8.14e-07	–	–	22.27
[1], 323.15 K	–	842.71	–	–
[1], 333.15 K	–	833.25	–	–
[1], 343.15 K	–	823.72	–	–
[1], 348.04 K	6.25e-07	–	–	20.08
[1], 353.15 K	–	814.13	–	–
[1], 363.15 K	–	804.45	–	–
[1], 372.96 K	5e-07	–	–	17.81
[1], 373.15 K	–	794.69	–	–
[1], 383.15 K	–	784.83	–	–
[1], 393.15 K	–	774.87	–	–
[1], 397.73 K	4.11e-07	–	–	15.68
[1], 403.15 K	–	764.77	–	–
[1], 413.15 K	–	754.53	–	–
[1], 422.94 K	3.46e-07	–	–	13.51
[1], 423.15 K	–	744.07	–	–
[1], 447.88 K	3.03e-07	–	–	11.43
[2], 278.15 K	–	–	1.41438	–
[2], 283.15 K	–	–	1.4121	–
[2], 288.15 K	–	–	1.40982	–
[2], 293.15 K	–	–	1.40753	–
[2], 298.15 K	–	–	1.40525	–
[2], 303.15 K	–	–	1.40295	–
[2], 308.15 K	–	–	1.40063	–
[2], 313.15 K	–	–	1.39829	–
[2], 318.15 K	–	–	1.39594	–
[2], 323.15 K	–	–	1.3936	–
[2], 328.15 K	–	–	1.39128	–
[2], 333.15 K	–	–	1.38897	–
[2], 338.15 K	–	–	1.38667	–
[2], 343.15 K	–	–	1.38438	–
[2], 348.15 K	–	–	1.3821	–
[2], 353.15 K	–	–	1.37983	–
[2], 358.15 K	–	–	1.37754	–

Reference: the NIST ThermoML archive (doi:10.1016/j.jct.2019.02.025)
